Patent US9777005B2 (Takeda Pharmaceutical Company Limited, priority 2012, dated 2017)

Molecular target: T1, human M1 receptor (hCHRM1) (Homo sapiens, UniProt P11229)
T1 construct: expressed in transfected cells; host or cells: CHO-K1
T1 sequence (P11229 1-460): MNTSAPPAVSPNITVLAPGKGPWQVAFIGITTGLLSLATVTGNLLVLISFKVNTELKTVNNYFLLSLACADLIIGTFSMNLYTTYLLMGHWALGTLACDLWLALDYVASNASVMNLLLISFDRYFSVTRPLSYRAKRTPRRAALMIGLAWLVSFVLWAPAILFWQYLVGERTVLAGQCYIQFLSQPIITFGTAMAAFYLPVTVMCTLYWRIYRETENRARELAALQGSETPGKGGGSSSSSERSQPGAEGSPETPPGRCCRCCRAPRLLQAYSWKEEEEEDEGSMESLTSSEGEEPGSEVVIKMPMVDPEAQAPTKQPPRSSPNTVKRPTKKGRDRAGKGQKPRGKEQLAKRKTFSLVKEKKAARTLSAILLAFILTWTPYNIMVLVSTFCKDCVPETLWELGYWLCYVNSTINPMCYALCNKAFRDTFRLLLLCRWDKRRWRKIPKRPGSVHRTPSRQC
Experiment: Measurement of M1 receptor positive allosteric modulator (M1PAM) activity, calcium fluorescence (FLIPRtetra) in CHO-K1 cells in the presence of acetylcholine at EC20
Format: cell-based
Details: in the presence of acetylcholine at EC20 (final 0.6 nM), CHO-K1 cells expressing hCHRM1; for EC50: inflection point of M1PAM activity, read-out: IP value; for activity (%) at 10 μM: test compound 10 μM
Outline: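 PAM activity was measured as calcium flux by FLIPRtetra over 1 min after co-addition of compound and EC20 acetylcholine (final 0.6 nM) to Fluo-4-loaded hCHRM1 CHO-K1 cells. The response was scaled between DMSO (0%) and 1 μM acetylcholine (100%), and the inflection point of the concentration curve gives the IP value.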

Row | EC50 [nM] | activity (%) at 10 μM [%] | Structure (SMILES)
1 | 16 | 96 | Cn1cc(-c2ccc(CN3Cc4ccnc(Oc5cc(C#N)ccc5F)c4C3=O)cc2)cn1 [Example 297, 4-fluoro-3-((2-(4-(1-methyl-1H-pyrazol-4-yl)benzyl)-3-oxo-2,3-dihydro-1H-pyrrolo[3,4-c]pyridin-4-yl)oxy)benzonitrile]
2 | 39 | 96 | Cc1nn(C)cc1-c1ccc(CN2Cc3ccnc(Oc4cc(C(C)(C)O)ccc4F)c3C2=O)cc1 [Example 312, 2-(4-(1,3-dimethyl-1H-pyrazol-4-yl)benzyl)-4-(2-fluoro-5-(2-hydroxypropan-2-yl)phenoxy)-1,2-dihydro-3H-pyrrolo[3,4-c]pyridin-3-one]
3 | 11 | 89 | Cn1ccc(-c2ccc(CN3Cc4ncnc(Oc5ccc(C(F)(F)F)cc5F)c4C3=O)cc2)n1 [Example 314, 4-(2-fluoro-4-(trifluoromethyl)phenoxy)-6-(4-(1-methyl-1H-pyrazol-3-yl)benzyl)-6,7-dihydro-5H-pyrrolo[3,4-d]pyrimidin-5-one]
4 | 21 | 89 | Cc1nn(C)cc1-c1ccc(CN2Cc3ncnc(OC4CCC4)c3C2=O)cc1 [Example 323, 4-(cyclobutyloxy)-6-(4-(1,3-dimethyl-1H-pyrazol-4-yl)benzyl)-6,7-dihydro-5H-pyrrolo[3,4-d]pyrimidin-5-one]
5 | 47 | 116 | O=C1c2c(ccnc2OCC2CCCO2)CN1Cc1ccc(-c2ccnc(C(F)(F)F)c2)cc1 (stereo not shown) [Example 325, 4-((tetrahydrofuran-2-yl)methoxy)-2-(4-(2-(trifluoromethyl)pyridin-4-yl)benzyl)-1,2-dihydro-3H-pyrrolo[3,4-c]pyridin-3-one]
6 | 23 | 108 | Cc1cc(-c2ccc(CN3Cc4ccnc(OCC5CCCO5)c4C3=O)cc2)cnn1 (stereo not shown) [Example 326, 2-(4-(6-methylpyridazin-4-yl)benzyl)-4-((tetrahydrofuran-2-yl)methoxy)-1,2-dihydro-3H-pyrrolo[3,4-c]pyridin-3-one]
7 | 6.5 | 98 | Cn1cc(-c2ccc(CN3Cc4ccnc(OCc5ccccc5F)c4C3=O)c(F)c2)nn1 [Example 327, 4-((2-fluorobenzyl)oxy)-2-(2-fluoro-4-(1-methyl-1H-1,2,3-triazol-4-yl)benzyl)-1,2-dihydro-3H-pyrrolo[3,4-c]pyridin-3-one]
8 | 16 | 104 | Cn1cc(-c2ccc(CN3Cc4ccnc(OCC5CC5)c4C3=O)c(F)c2)nn1 [Example 331, 4-(cyclopropylmethoxy)-2-(2-fluoro-4-(1-methyl-TH-1,2,3-triazol-4-yl)benzyl)-1,2-dihydro-3H-pyrrolo[3,4-c]pyridin-3-one]
9 | 17 | 106 | Cn1cc(-c2ccc(CN3Cc4ccnc(OCc5ccccc5F)c4C3=O)cc2)nn1 [Example 332, 4-((2-fluorobenzyl)oxy)-2-(4-(1-methyl-1H-1,2,3-triazol-4-yl)benzyl)-1,2-dihydro-3H-pyrrolo[3,4-c]pyridin-3-one]
10 | 65 | 99 | CC(Oc1nccc2c1C(=O)N(Cc1ccc(-c3cn(C)nn3)cc1F)C2)c1ccccc1F (stereo not shown) [Example 334, 2-(2-fluoro-4-(1-methyl-1H-1,2,3-triazol-4-yl)benzyl)-4-(1-(2-fluorophenyl)ethoxy)-1,2-dihydro-3H-pyrrolo[3,4-c]pyridin-3-one]
11 | 57 | 98 | Cn1cc(-c2ccc(CN3Cc4ccnc(OC5CCC5)c4C3=O)cc2)nn1 [Example 335, 4-(cyclobutyloxy)-2-(4-(1-methyl-1H-1,2,3-triazol-4-yl)benzyl)-1,2-dihydro-3H-pyrrolo[3,4-c]pyridin-3-one]

Further lines, the compound ahead of its results:

Row | Structure (SMILES) | EC50 [nM] | activity (%) at 10 μM [%]
12 | COCc1ccc(F)c(Oc2nccc3c2C(=O)N(Cc2ccc(-c4cnn(C)c4)cc2)C3)c1 [Example 302, 4-(2-fluoro-5-(methoxymethyl)phenoxy)-2-(4-(1-methyl-1H-pyrazol-4-yl)benzyl)-1,2-dihydro-3H-pyrrolo[3,4-c]pyridin-3-one] | 32 | 92
13 | Cc1cc(-c2ccc(CN3Cc4ccnc(Oc5ccc(C(F)(F)F)cc5F)c4C3=O)cc2)cnn1 [Example 303, 4-(2-fluoro-4-(trifluoromethyl)phenoxy)-2-(4-(6-methylpyridazin-4-yl)benzyl)-1,2-dihydro-3H-pyrrolo[3,4-c]pyridin-3-one] | 8.5 | 91
14 | Cn1cc(-c2ccc(CN3Cc4ccnc(Oc5ccc(C(F)(F)F)cc5F)c4C3=O)cc2)cn1 [Example 304, 4-(2-fluoro-4-(trifluoromethyl)phenoxy)-2-(4-(1-methyl-1H-pyrazol-4-yl)benzyl)-1,2-dihydro-3H-pyrrolo[3,4-c]pyridin-3-one] | 12 | 93
15 | Cn1ccc(-c2ccc(CN3Cc4ccnc(Oc5ccc(C(F)(F)F)cc5F)c4C3=O)cc2)n1 [Example 305, 4-(2-fluoro-4-(trifluoromethyl)phenoxy)-2-(4-(1-methyl-1H-pyrazol-3-yl)benzyl)-1,2-dihydro-3H-pyrrolo[3,4-c]pyridin-3-one] | 25 | 94
16 | Cn1cc(-c2ccc(CN3Cc4ncnc(Oc5ccc(C(F)(F)F)cc5F)c4C3=O)cc2)cn1 [Example 306, 4-(2-fluoro-4-(trifluoromethyl)phenoxy)-6-(4-(1-methyl-1H-pyrazol-4-yl)benzyl)-6,7-dihydro-5H-pyrrolo[3,4-d]pyrimidin-5-one] | 8.9 | 97
17 | Cn1cc(-c2ccc(CN3Cc4ncnc(Oc5ccc(C(F)F)cc5F)c4C3=O)cc2)cn1 [Example 307, 4-(4-(difluoromethyl)-2-fluorophenoxy)-6-(4-(1-methyl-1H-pyrazol-4-yl)benzyl)-6,7-dihydro-5H-pyrrolo[3,4-d]pyrimidin-5-one] | 9.3 | 92
18 | Cn1cc(-c2ccc(CN3Cc4ccnc(Oc5cc(C(C)(C)O)ccc5F)c4C3=O)cc2)cn1 [Example 308, 4-(2-fluoro-5-(2-hydroxypropan-2-yl)phenoxy)-2-(4-(1-methyl-1H-pyrazol-4-yl)benzyl)-1,2-dihydro-3H-pyrrolo[3,4-c]pyridin-3-one] | 44 | 99
19 | O=C1c2c(ccnc2Oc2ccc(C(F)(F)F)cc2F)CN1Cc1ccc(-c2ccnnc2)cc1 [Example 309, 4-(2-fluoro-4-(trifluoromethyl)phenoxy)-2-(4-(pyridazin-4-yl)benzyl)-1,2-dihydro-3H-pyrrolo[3,4-c]pyridin-3-one] | 27 | 100
20 | Cn1ccc(-c2ccc(CN3Cc4ncnc(Oc5ccc(C(F)F)cc5F)c4C3=O)cc2)n1 [Example 310, 4-(4-(difluoromethyl)-2-fluorophenoxy)-6-(4-(1-methyl-1H-pyrazol-3-yl)benzyl)-6,7-dihydro-5H-pyrrolo[3,4-d]pyrimidin-5-one] | 30 | 105
21 | Cc1cc(-c2ccc(CN3Cc4ncnc(Oc5ccc(C(F)(F)F)cc5F)c4C3=O)cc2)cnn1 [Example 311, 4-(2-fluoro-4-(trifluoromethyl)phenoxy)-6-(4-(6-methylpyridazin-4-yl)benzyl)-6,7-dihydro-5H-pyrrolo[3,4-d]pyrimidin-5-one] | 16 | 100
22 | O=C1c2c(ncnc2Oc2ccc(C(F)(F)F)cc2F)CN1Cc1ccc(-c2ccnnc2)cc1 [Example 313, 4-(2-fluoro-4-(trifluoromethyl)phenoxy)-6-(4-(pyridazin-4-yl)benzyl)-6,7-dihydro-5H-pyrrolo[3,4-d]pyrimidin-5-one] | 27 | 89
23 | CCn1cc(-c2ccc(CN3Cc4ncnc(OC5CCC5)c4C3=O)cc2)cn1 [Example 324, 4-(cyclobutyloxy)-6-(4-(1-ethyl-1H-pyrazol-4-yl)benzyl)-6,7-dihydro-5H-pyrrolo[3,4-d]pyrimidin-5-one] | 19 | 99
24 | Cc1nn(C)cc1-c1ccc(CN2Cc3ccnc(OCc4ncccc4F)c3C2=O)c(F)c1 [Example 329, 2-(4-(1,3-dimethyl-1H-pyrazol-4-yl)-2-fluorobenzyl)-4-((3-fluoropyridin-2-yl)methoxy)-1,2-dihydro-3H-pyrrolo[3,4-c]pyridin-3-one] | 4.3 | 106
25 | Cn1cc(-c2ccc(CN3Cc4cccc(OCC5CCCO5)c4C3=O)c(F)c2)nn1 (stereo not shown) [Example 330, 2-(2-fluoro-4-(1-methyl-1H-1,2,3-triazol-4-yl)benzyl)-7-((tetrahydrofuran-2-yl)methoxy)isoindolin-1-one] | 30 | 104
26 | O=C1c2c(ccnc2OCC2CCCO2)CN1Cc1ccc(-c2cc[nH]n2)cc1 (stereo not shown) [Example 333, 2-(4-(1H-pyrazol-3-yl)benzyl)-4-((tetrahydrofuran-2-yl)methoxy)-1,2-dihydro-3H-pyrrolo[3,4-c]pyridin-3-one] | 21 | 114
